The record followed here is ChEMBL document CHEMBL4765389, “Antimicrobial and anti-inflammatory activities of short dodecapeptides derived from duck cathelicidin: Plausible mechanism of bactericidal action and endotoxin neutralization” (Eur J Med Chem, 2020).

For the assay, the system named is Lipopolysaccharide (LPS). As to the kind of experiment: Displacement of BODIPY-TR cadaverine from Escherichia coli O111:B4 LPS at 20 uM measured for 100 sec by spectrofluorometry relative to control.

Take H-LIKKIYRKWKRW-NH2: the Activity was 68%.
